In one series the test system is stress ulcer. Nature of the series: WIS: Restraint and Water Immersion Stress-Induced Ulcer Inhibition Test. In kind it is in vivo, male Crj:SD or Slc:SD rats. The following applies: rat; for inhibition in vivo at 100 mg/kg: 100 mg/kg oral, 7 h water immersion stress, read-out: ulcer formation inhibitory rate (WIS). The protocol: WIS: Restraint and Water Immersion Stress-Induced Ulcer Inhibition Test
The degree of inhibition of the stress ulcer formation is tested.
Male Crj:SD or Slc:SD rats (6 to 7-week-old) were fasted overnight, but allowed free access to water. Each group has 5 to 8 of these rats. The sample compound was dissolved or suspended in an aqueous solution of 0.3% sodium carboxymethylcellulose or 0.05% Tween 80 and then was orally administered (100 mg/10 ml/kg. To a control group, the vehicle was administered. 10 minutes later, the rats were placed in a stress cage and immersed to the level of xipfoid process in a water bath (21° C.) for 7 hours. At the end of the stress, the rats were sacrificed by inhalation of ether or carbon dioxide. Then, the stomach of each was removed, inflated by injecting 10 ml of 5% formalin neutral buffer solution, and immersed in 1% formalin neutral buffer solution for 30 minutes or more to be fixed. The stomach was incised along the greater curvature and then the length of each erosion in the glandular portion was determined under dissecting microscope. The sum of the length of erosions per stomach was defined as ulcer index (UI).
The effect obtained when 100 mg/kg of the sample compound had been administered was expressed as ulcer formation inhibitory rate (%) as follows:
ulcer formation inhibitory rate (%)=(1-(UI in sample group/UI in control group))×100

Series [1] relates to isolated gastric fundic gland. The series can be described thus: CAP: Acid Secretion Inhibition Test In Vitro ([14C]-aminopyrine uptake test). The following applies: Oryctolagus cuniculus; final concentration 10^-5 M, histamine 10^-5 M; read-out: acid secretion inhibitory rate (CAP). In kind it is cell-based, male Japanese White rabbit. On the procedure: CAP: Acid Secretion Inhibition Test In Vitro
The acid secretion inhibitory activity in a cell level is studied. It can also be used for studying the mechanism of the effect.
ii-a) Preparation of isolated gastric fundus gland suspension
First, an isolated gastric fundic gland sample was prepared. Namely, a male Japanese White rabbit (2.5 to 3 kg) was anesthetized to death with Nembutal™ and then the abdomen was incised. Immediately thereafter, the stomach was removed and, after its pyloric and cardiac antrum were severed, incised along its greater curvature into two sheets. The gastric contents adhering to the mucosal surface was washed out with ice-cooled PBS (-) and then carefully washed therein. The gastric wall was spread on a cork board with its mucosal surface facing up and the feed and mucus thereon were completely removed with sterile gauze. The mucosa was separated therefrom by a spatula and then collected in ice-cooled PBS (-). After being washed twice with PBS (-), the mucosa was minced into 2-3 mm^3 pieces by scissors. These pieces were further washed twice with a nutrient solution. The nutrient solution comprises 132.4 mM of NaCl, 5.4 mM of KCl, 5 mM of Na2 HPO4.12H2 O, 1 mM of NaH2 PO4.2H2,
1.2 mM of MgSO4, 1 mM of CaCl2, 25 mM of HEPES, 2 mg/ml of glucose, and 1 mg/ml of BSA.
Into 70 ml of the nutrient solution containing 1 mg/ml of collagenase, minced mucosal pieces were dispersed and intensely stirred in a conical flask with a stirrer at 37° C. for 40 to 60 minutes. During this period, 100% O2 was sprayed on the nutrient solution surface and the pH was appropriately measured such that it was immediately adjusted to pH 7.4, when the value was therebelow, with a base. The nutrient solution was added to the reaction solution so as to attain the total amount of about 200 ml. After being filtered through a mesh, the suspension was divisionally introduced into 50 ml centrifuge tubes and left for 15 minutes such that gastric fundic gland was deposited. The supernatant was repeatedly removed by an aspirator, dispersed in the nutrient solution, and then left such that the gastric fundic gland was washed three times. At this time, without using a pipette, the suspension was alternately introduced into two centrifuge tubes so as to effect dispersion. The number of cells was counted under microscope and adjusted to 1.6×10^6 cells/ml.
ii-b) [^14 C]-aminopyrine uptake test.
Then, [^14 C]-aminopyrine uptake test was performed. After an Eppendorf tube was weighed, 10 μl (final concentration: 10^-5 M) of histamine dissolved in the above-mentioned nutrient solution, 10 μl (final concentration: 10^-5 M) of the test compound dissolved in DMSO, and 10 μl (final concentration: 0.05 μCi/ml) of [^14 C]-aminopyrine diluted with the nutrient solution were introduced therein and then 970 μl of the isolated gastric fundic gland suspension prepared above was added thereto. Subsequently, this mixture was shaken at 37° C. for 40 minutes at 125 cycles/minute. After being centrifuged for 30 seconds, 200 μl of its supernatant was collected into a mini-vial, while the rest was removed by an aspirator. The gland pellet was completely dried as the tube with its lid being opened was kept for one night in a drying oven at 80° C. and then the lid was closed and the weight was determined at room temperature. Then 100 μl of 1N KOH was added thereto and the tube with its lid being closed was treated at 60° C. for 1 to 2 hours so as to dissolve the pellet. Then, the contents thereof were transferred to a mini-vial. Into the mini-vial containing the supernatant or gland pellet, 4 ml of Atomlite™ was added and then the radioactivity was measured by a liquid scintillation counter. Here, after the radioactivity of the gland pellet was corrected by using a sample in which 20 mM of NaSCN was added so as to cancel the hydrogen ion concentration gradient, the integration ratio of aminopyrine specifically trapped by the gland pellet was calculated. […]

The next series has as its system Slc:ICR mice. More on the design: species or system male Slc:ICR mice. As to conditions: mouse, in vivo. On the procedure:
AT: Single Dose Toxicity Pretest
Male Slc:ICR mice (5-week-old) were used. Each group has 3 to 5 mice and each mouse was fasted, but allowed free access to water, for 4 to 5 hours from 9 a.m. in the test day. Then, 2,000 mg/10 ml/kg of the sample compound dissolved or suspended in an aqueous solution of 0.5% sodium carboxymethyl cellulose was orally administered thereto. To a control, only the vehicle was administered. […] The body weight was measured before and after the fasting as well as at the same time everyday. The dead animals were immediately subjected to autopsy and their organs were observed by naked eyes. Also, the living animals were sacrificed with ether or carbon dioxide one week after the administration and then their organs were observed by naked eyes.
The toxicity at the single dose of 2,000 mg/kg of the sample compound was expressed as being classified into 5 levels.
5: Mortality rate is 0%; no toxicity is found at all both in behavior and organs.
4: Mortality rate is 0%; while no toxicity is found in organs, slight toxicity is observed in behavior or body weight increase.
3: While there is a dead animal (though not all the animals are dead), no toxicity is found in organs.
2: Regardless of whether there is a dead animal or not, toxicity is found in organs.
1: All the animals are dead.

Series [2] can be described thus: MTT: Cell Damaging and Protecting Effect Test. In kind it is cell-based, male Japanese White rabbit. As to conditions: rabbit, gastric mucosa cells, final concentration 10^-4 M, smaller value is better, read-out: cell damaging rate (MTT). An excerpt: MTT: Cell Damaging and Protecting Effect Test
It is confirmed that there is no toxicity in cell level. Those having a toxicity in cell level are inappropriate as an anti-ulcer drug.
A male Japanese White rabbit (2.5 to 3 kg) was anesthetized to death by Nembutal™ and, immediately thereafter, its stomach was removed. The greater curvature of the stomach was incised so as to remove the stomach contents therefrom. After the mucosal surface was washed with HBSS (Hanks' Balanced Salt Solution), the stomach in ice-cooled HBSS was transferred to a laboratory. Then, after the pyloric antrum was removed, the gastric corpus mucosa was separated by a spatula and then minced into 2 to 3 mm^3 pieces in BME (Basal Medium Eagle). Thereafer, these pieces were shaken at 120 to 130 cycles/minute for 15 minutes at 37° C. in BME 60 ml containing 280 U/ml of dispase and 30 to 50 U/ml of collagenase. Here, the concentration of collagenase was appropriately changed for each lot in view of the state of cells. The pieces were washed twice with EBSS (Earle's Balanced Salt Solution) containing 1 mM of EDTA and then shaken in MEM (Minimum Essential Medium) containing 1 mM of EDTA at 37° C. for 5 minutes. Subsequently, they were shaken in the dispase and collagenase having the same concentrations as those mentioned above for 15 minutes so as to remove the supernatant and then further shaken at 37° C. for 50 to 60 minutes at 120 to 130 cycles/minute. Then, after being washed twice with HBSS, Ham F12 containing 2% of Ultrocer G™ was used to attain the concentration of 1×10^6 cells/ml. Thus formed suspension was dispensed in each well of a 96-well plate by 200 μl. The plate was incubated in the atmosphere composed of 5% CO2 and 95% air at 37° C. for three days so as to attain a confluent state and then subjected to MTT assay.
The sample compound was dissolved in DMSO so as to attain a concentration of 10^-2 M and then diluted with HBSS containing 2% of Ultrocer G™ so as to attain a final concentration of 10^-4 M. To each group, which 8 wells were used for, 10 μl of MTT reagent was added immediately after 100 μl of the medium in each well was exchanged for same volume of the resulting solution of the sample compound. After being incubated in an atmosphere composed of 5% CO2 and 95% air at 37° C. for 4 hours, thus formed solution was centrifuged and then its supernatant was discarded. Subsequently, 100 μl of 100% ethanol was added to the residue so as to dissolve MTT formazan. Then, the absorbance (OD: 570 to 630) was measured by a microplate reader. This method utilizes a phenomenon in which MTT is changed to MTT formazan only by mitochondria of living cells so as to change color.
The cell damaging or cell protecting effect of the sample compound at the final concentration of 10^-4 M was expressed as cell damaging rate (%) as follows:
cell damaging rate (%)=(1-(absorbance in sample group/absorbance in control group))×100
Accordingly, the smaller value is better in the cell damaging rate.

The record followed here is patent publication US5925667A, “Pyrrolidine derivative, anti-ulcer drug, and antibacterial drug” (Shiseido Co., Ltd., priority 1997, dated 1999).

Consider `CCN1CCCC1CNC(=O)c1ccc(OC/C=C(/C)CCC=C(C)C)cc1` (stereo not shown) [Example 4, 1-ethyl-2-(4-neryloxybenzoylaminomethyl)pyrrolidine], for which, in the series with stress ulcer, the inhibition in vivo at 100 mg/kg turned out to be 68%. Moreover, in series [1], the inhibition at 10 µM was found to be 100%. The “toxicity at single dose (AT), 5 levels” value in the series with Slc:ICR mice amounted to 5.
For the compound `CCN1CCCC1CNC(=O)c1cc(OCC=C(C)C)cc(OCC=C(C)C)c1` (stereo not shown) [Example 8, 1-ethyl-2-(3,5-diprenyloxybenzoylaminomethyl)pyrrolidine], in the series on stress ulcer, the inhibition in vivo at 100 mg/kg was 81%. Also, in series [1], the inhibition at 10 µM came to 100%. Besides, the “toxicity at single dose (AT), 5 levels” value in the series on Slc:ICR mice is given as 5.
In the case of `CCN1CCCC1CNC(=O)c1cc(OC/C=C(\C)CCC=C(C)C)cc(OC/C=C(\C)CCC=C(C)C)c1` (stereo not shown) [Example 12, 1-ethyl-2-(3,5-digeranyloxybenzoylaminomethyl)pyrrolidine], the inhibition in vivo at 100 mg/kg in the series on stress ulcer worked out at 82%. The inhibition at 10 µM in series [1] is 100%. For the same compound, the cytotoxicity at 4 h, 100 µM in series [2] was determined as 29%.
Turning to `CCN1CCCC1CNC(=O)c1ccccc1SC/C=C(\C)CCC=C(C)C` (stereo not shown) [Example 14, 1-ethyl-2-(2-geranylthiobenzoylaminomethyl)pyrrolidine], in the series with stress ulcer, the inhibition in vivo at 100 mg/kg was 81%. In addition, the “anti-ulcer effect (in words)” value in the series on stress ulcer (in vivo) is given as “the effect has been maintained”. In series [1], the inhibition at 10 µM stood at 98.1%. In addition, the cytotoxicity at 4 h, 100 µM in series [2] stood at 27%.
As to `CCN1CCCC1CNC(=O)c1ccc(OC/C=C(\C)CCC=C(C)C)c(OC)c1` (stereo not shown) [Example 16, 1-ethyl-2-(4-geranyloxy-3-methoxybenzoylaminomethyl)pyrrolidine], the inhibition in vivo at 100 mg/kg with stress ulcer was determined as 72%. Also, the inhibition at 10 µM in series [1] came out at 99.8%. Moreover, in the series with Slc:ICR mice, the “toxicity at single dose (AT), 5 levels” value is given as 4.
`CCN1CCCC1CNC(=O)c1cccc(OC)c1OC/C=C(\C)CCC=C(C)C` (stereo not shown) [Example 17, 1-ethyl-2-(2-geranyloxy-3-methoxybenzoylaminomethyl)pyrrolidine]: the inhibition in vivo at 100 mg/kg with stress ulcer worked out at 82%. Further, the inhibition at 10 µM in series [1] worked out at 100%. Moreover, the cytotoxicity at 4 h, 100 µM in series [2] is 22%.
As to `CCN1CCCC1CNC(=O)c1cc(OC)c(OC)c(OCC=C(C)C)c1` (stereo not shown) [Example 23, 1-ethyl-2-(3,4-dimethoxy-5-prenyloxybenzoylaminomethyl)pyrrolidine], the inhibition in vivo at 100 mg/kg with stress ulcer is 79%. The inhibition at 10 µM in series [1] was 73.1%. In addition, the cytotoxicity at 4 h, 100 µM in series [2] was -3%.
